Read-outs that look alike come from different tables or passages of the source.
How the values were obtained:
[1] = rabbit
[2] = system: rats with acute ischemia induced by Middle Cerebral Artery Occlusion (MCAO); test: Example 16: acute ischemia induced by MCAO in rats; format: in vivo, rat; settings: for infarct volume: Day 14 after MCAO, TTC staining, mean±SEM; for reduction of infarct volumes: comparators: oral 60 mg/kg bid, Edaravone 3 mg/kg i.v. q.d.; for mortalities: deaths of animals in group
[3] = system: rats with acute ischemia induced by Middle Cerebral Artery Occlusion (MCAO); test: Example 17: acute ischemia induced by MCAO in rats; format: in vivo, rat; settings: for infarct volume: Day 14 after MCAO, TTC staining, mean±SEM; for reduction of infarct volumes: comparators: oral 60 mg/kg bid, Edaravone 3 mg/kg i.v. q.d.
[4] = system: rats with acute ischemia induced by Middle Cerebral Artery Occlusion (MCAO); test: Example 14: acute ischemia induced by middle cerebral artery occlusion (MCAO) in rats; format: in vivo, rat; settings: for infarct volume: Day 14 after MCAO, TTC staining, mean±SEM; for reduction of infarct volumes: comparators: oral 60 mg/kg bid, Edaravone 3 mg/kg i.v. q.d.
[5] = system: rats with acute ischemia induced by Middle Cerebral Artery Occlusion (MCAO); test: Example 15: acute ischemia induced by MCAO in rats; format: in vivo, rat; settings: for infarct volume: Day 14 after MCAO, TTC staining, mean±SEM; for reduction of infarct volumes: comparators: oral 60 mg/kg bid, Edaravone 3 mg/kg i.v. q.d.
[6] = system: rats with acute ischemia induced by Middle Cerebral Artery Occlusion (MCAO); test: Example 18: acute ischemia induced by MCAO in rats; format: in vivo, rat; settings: for infarct volume: Day 14 after MCAO, TTC staining, mean±SEM; for reduction of infarct volumes: comparators: oral 60 mg/kg bid, Edaravone 3 mg/kg i.v. q.d.
[7] = system: myocardial infarction in minipigs; test: Example 20: myocardial infarction efficacy study in minipigs (circumflex coronary artery thrombosis); format: in vivo, minipig; settings: aspirin 20 mg/kg/time oral, twice a day
Protocol: Total 24 male minipigs were used for this study. […] The minipigs were already quarantined and acclimated. Before animal being transferred from holding colony, a physical examination was performed and the acceptability of the animals for the study was evaluated by veterinary. […] [table] […] Under anesthesia, thoracotomy was carried out and the circumflex coronary artery of the heart was exposed. The circumflex coronary artery thrombosis was induced by photochemical reaction. […] Photoirradiation was continued for a 30 min. […] After cutting the femoral artery, thoracotomy was carried out and the heart was removed. […] TTC regent for 5 min. After staining with TTC reagent, the photograph of the heart 5 blocks was taken. All blocks were immersed in 10% formalin neutral buffer solution. The 2nd block appeared large necrotic area was cut sections (thickness: 7-8 μm). Slice was stained with H & E reagent. […] The infarct lesions were defined as a necrotic portion of TTC stained blocks. […] The histopathological alteration (necrosis, inflammation, granulation, etc.) of myocardial infarction was examined using H & E stained slides.

[8] = system: middle cerebral artery (MCA) thrombosis model of monkeys; test: Example 19: middle cerebral artery (MCA) thrombosis model of monkeys; settings: aspirin 20 mg/kg/time oral, twice a day
Protocol: Aspirin was administered orally by gavage using a nasal catheter with a disposal syringe. The catheter was inserted into the stomach through the mouth. The treatment was once per day of MCA thrombosis (day 0), twice per day for 27 days.
The monkeys that had been fastened for at least 12 h were anesthetized with intramuscular administration of ketamine hydrochloride (20 mg/kg), and placed on an operation-bed. Anesthesia was continued with 1.0% isoflurane in O2 gas until 30 min. The inhalation anesthesia was performed with anesthesia machines (SN23402, Hallowell engineering and manufacturing corporation, USA) and respirators (SN23402, Hallowell engineering and manufacturing corporation, USA), and placed on an operation-bed. During anesthesia, body temperature of the animals (rectal temperature) was controlled between 37.0±0.5° C. by heating mattresses (XMTA-7000, Delixi Electric., Ltd.).
Under anesthesia, the left eye was enucleated using a bipolar coagulation device (Valleylab Force 1C, USA). A craniotomy was then performed supralaterally to the left side of the optic nerve. The next day animals were anesthetized with ketamine hydrochloride (20 mg/kg) and the dura and subarachnoid membrane were opened. MCA thrombosis was induced by photochemical reaction. The proximal part of the main MCA trunk. was irradiated with green light wave length 532 nm achieved by use of a xenon lamp (GL532T3-100FC, Shanghai Laser& Optics Century Col., Ltd.). The irradiation was directed by a 3-mm diameteroptic fiber mounted on a micromanipulator. Irradiation was started and rose bengal 20 mg/kg was injected intravenously. Photoirradiation was continued for a 30 min. The dura was then covered with a moist gelatin sponge.
Neurological deficits (see Table 3) were assessed 1, 3, 5, 7, 14 and 28 days after the onset of MCA thrombosis (day 0) in a blind manner. The neurological deficits was scored on consciousness, sensory system, motor system and skeletal muscle coordination, and the total neurological deficit score was calculated by summing the scores of consciousness, sensory system, motor system and skeletal muscle coordination.
The survival monkeys were deeply anesthetized with pentobarbital sodium (35 mg/kg, i.v.) 28 days after the onset of MCA thrombosis. After cutting the atriums of heart, 200 mL of heparinized physiological saline (10 U/mL) was allowed to perfuse the brain via the common carotid arteries, and followed by perfusion of 200 mL of 10% formalin neutral buffer solution. The whole brain was removed, and then was put in pathology sample preservation packs containing 10% formalin neutral buffer solution. For each brain sample, the coronal sections (thickness: 7-8 μm) per site were prepared at 10 sites at 4-mm intervals. Slices per site were each stained with H & E reagent.
Measurement of cerebral infarct lesions was carried out in a blind manner. The infarct lesions in the ischemic side are defined as a necrotic portion compared with that in the contralateral side. The infarcted area of left cerebral hemisphere (A) in the cross-sections was traced and measured using a computerized image analysis system (image J).
When the infarct size of 2 serial section was made into D and D′, the infarcted volume using the thickness (4 mm) of a section is measured in the following formula:
Total infarcted volume is calculated by summing the infarcted volume of the 10 serial sections.

[9] = high dose 60 mg/kg topical bid 14 days
[10] = high dose group compared to vehicle group
[11] = high dose groups vs vehicle group
[12] = low dose 15 mg/kg topical bid 14 days
[13] = low, middle and high dose groups, Day 5-14, vs vehicle group by t-test
[14] = middle dose 30 mg/kg topical bid 14 days

| Compound | The cumulative amount of test compounds ([1]; 1 h) | The cumulative amount of test compounds ([1]; 2 h) | The cumulative amount of test compounds ([1]; 4 h) | The cumulative amount of test compounds ([1]; 8 h) | further results |
| --- | --- | --- | --- | --- | --- |
| CCN(CC)CCOC(=O)c1ccccc1OC(=O)c1ccccc1OC(C)=O.Cl [Compound-13, 2-(diethylamino)ethyl 2-(2-acetoxybenzoyl)oxybenzoate hydrochloride] | 0.46 mg | 0.97 mg | 1.99 mg | 3.89 mg | – |
| CC1=NN(c2ccccc2)C(=O)C1 [Edaravone, reference compound] | – | – | – | – | infarct volume ([2]; 3 mg/kg i.v. q.d. 14 days): 39.27%±2.513; reduction of infarct volumes [2]: little reduction; infarct volume ([3]; 3 mg/kg i.v. q.d. 14 days): 40.35%±2.078; reduction of infarct volumes [3]: little reduction; infarct volume ([4]; 3 mg/kg i.v. q.d. 14 days): 38.07%±2.031; reduction of infarct volumes [4]: little reduction; infarct volume ([5]; 3 mg/kg i.v. q.d. 14 days): 39.94%±2.256; reduction of infarct volumes [5]: little reduction; infarct volume ([6]; 3 mg/kg i.v. q.d. 14 days): 41.33%±2.792; reduction of infarct volumes [6]: little reduction |
| CCN(CC)CCOC(=O)c1cc(-c2ccc(F)cc2F)ccc1OC(C)=O.Cl [Compound-7, 2-(diethylamino)ethyl 2′,4′-difluoro-4-acetoxy-[1,1′-biphenyl]-3-carboxylate hydrochloride] | 0.53 mg | 1.07 mg | 2.16 mg | 4.33 mg | – |
| O=C(Oc1ccccc1C(=O)O)c1ccccc1O [Compound-18, 2-(2-hydroxybenzoyl)oxybenzoic acid, reference compound] | 0.000 mg | 0.000 mg | 0.001 mg | 0.001 mg | – |
| CC(=O)Oc1ccccc1C(=O)Oc1ccccc1C(=O)O [Compound-15, 2-(2-acetoxybenzoyl)oxybenzoic acid, reference compound] | 0.000 mg | 0.000 mg | 0.001 mg | 0.001 mg | infarct volume ([6]; 60 mg/kg oral bid 14 days): 39.25%±2.981; reduction of infarct volumes [6]: little reduction |
| CC(=O)Oc1ccc(-c2ccc(F)cc2F)cc1C(=O)O [Compound-9, 2′,4′-difluoro-4-acetoxy-[1,1′-biphenyl]-3-carboxylic acid, reference compound] | 0.000 mg | 0.000 mg | 0.001 mg | 0.002 mg | infarct volume ([3]; 60 mg/kg oral bid 14 days): 38.95%±2.176; reduction of infarct volumes [3]: little reduction |
| CCN(CC)CCOC(=O)c1ccccc1O.Cl [Compound-4, 2-(diethylamino)ethyl hydroxybenzoate hydrochloride] | – | – | – | – | infarct volume [5, 9]: 34.56%±2.563; neuroprotective effect on brain ischemic injury [5, 10]: good neuroprotective effect; neurological deficit scores [5, 11]: show differences significantly; infarct volume [5, 12]: 37.01%±2.053; body weight [5, 13]: increased; infarct volume [5, 14]: 35.77%±1.875 |
| CCN(CC)CCOC(=O)c1ccccc1OC(=O)c1ccccc1O.Cl [Compound-16, 2-(diethylamino)ethyl 2-(2-hydroxybenzoyl)oxybenzoate hydrochloride] | 0.37 mg | 0.87 mg | 1.71 mg | 3.56 mg | – |
| O=C(O)c1ccccc1O [Compound-6, Salicylic acid, reference compound] | 0.000 mg | 0.001 mg | 0.002 mg | 0.002 mg | infarct volume ([5]; 60 mg/kg oral bid 14 days): 37.47%±2.856; reduction of infarct volumes [5]: little reduction |
| Cl.O=C(Oc1ccccc1C(=O)OCC1CCCN1)c1ccccc1O (stereo not shown) [Compound-17, (pyrrolidin-2-yl)methyl 2-(2-hydroxybenzoyl)oxybenzoate hydrochloride] | 0.32 mg | 0.68 mg | 1.39 mg | 2.97 mg | – |
| CC(=O)Oc1ccccc1C(=O)Oc1ccccc1C(=O)OCC1CCCN1.Cl (stereo not shown) [Compound-14, (pyrrolidin-2-yl)methyl 2-(2-acetoxybenzoyl)oxybenzoate hydrochloride] | 0.37 mg | 0.84 mg | 1.82 mg | 3.69 mg | infarct volume [6, 9]: 32.98%±2.546; mortalities ([6]; high dose 60 mg/kg topical bid, deaths of animals in group): 0 of 25; neuroprotective effect on brain ischemic injury [6, 10]: good neuroprotective effect; neurological deficit scores [6, 11]: show differences significantly; infarct volume [6, 12]: 36.87%±2.265; body weight [6, 13]: increased; infarct volume [6, 14]: 35.39%±2.479 |
| CC(=O)Oc1ccc(-c2ccc(F)cc2F)cc1C(=O)OCC1CCCN1.Cl (stereo not shown) [Compound-8, (pyrrolidin-2-yl)methyl 2′,4′-difluoro-4-acetoxy-[1,1′-biphenyl]-3-carboxylate hydrochloride] | 0.45 mg | 0.98 mg | 2.02 mg | 4.11 mg | infarct volume [3, 9]: 33.53%±1.986; neuroprotective effect on brain ischemic injury [3, 10]: good neuroprotective effect; neurological deficit scores [3, 11]: show differences significantly; infarct volume [3, 12]: 37.52%±2.789; body weight [3, 13]: increased; infarct volume [3, 14]: 35.02%±2.827 |
| CCN(CC)CCOC(=O)c1cc(-c2ccc(F)cc2F)ccc1O.Cl [Compound-10, 2-(diethylamino)ethyl 2′,4′-difluoro-4-hydroxyl-[1,1′-biphenyl]-3-carboxylate hydrochloride] | 0.49 mg | 1.03 mg | 2.12 mg | 4.39 mg | – |
| CC(=O)Oc1ccccc1C(=O)O [Compound-3, Aspirin] | 0.000 mg | 0.001 mg | 0.002 mg | 0.003 mg | infarct volume ([2]; 60 mg/kg oral bid 14 days): 37.99%±1.985; reduction of infarct volumes [2]: little reduction; degeneration of myocardium and myocardial necrosis (histopathology) [7]: moderate; infarct volume (myocardial) ([7]; 28 days after MCA thrombosis): 431 mm^3; infarct volume ([8]; Day 28 after MCA thrombosis): 1901 mm^3; Mortality rate [8]: 1/5; hemorrhage in the penumbra area [8]: showed hemorrhage; liquefaction in the infarct area (histopathology) [8]: moderate; neurological deficits ([8]; until 28 days after MCA thrombosis): tended to show slight recovery; infarct volume ([4]; 60 mg/kg oral bid 14 days): 36.27%±2.123; reduction of infarct volumes [4]: little reduction |
| O=C(O)c1cc(-c2ccc(F)cc2F)ccc1O [Compound-12, 2′,4′-difluoro-4-hydroxyl-[1,1′-biphenyl]-3-carboxylic acid, reference compound] | 0.000 mg | 0.001 mg | 0.001 mg | 0.003 mg | – |
| Cl.O=C(OCC1CCCN1)c1cc(-c2ccc(F)cc2F)ccc1O (stereo not shown) [Compound-11, (pyrrolidin-2-yl)methyl 2′,4′-difluoro-4-hydroxyl-[1,1′-biphenyl]-3-carboxylate hydrochloride] | 0.43 mg | 0.99 mg | 2.01 mg | 4.05 mg | – |
| (pyrrolidin-2-yl)methyl acetoxybenzoate hydrochloride [Compound-2] | – | – | – | – | mortalities ([2]; high dose 60 mg/kg topical bid): 0 of 25; infarct volume [2, 12]: 33.11%±2.212; neuroprotective effect on brain ischemic injury ([2]; low, middle and high dose groups compared to vehicle group): good neuroprotective effect; neurological deficit scores ([2]; low, middle and high dose groups vs vehicle group): show differences significantly; body weight [2, 13]: increased; infarct volume [2, 14]: 27.03%±2.123; mortalities ([2]; middle dose 30 mg/kg topical bid): 0 of 25 |

— patent US20250099491A1, “PREVENTION OR TREATMENT OF CARDIOVASCULAR DISEASES WITH HIGH PENETRATION PRODRUGS OF ASPIRIN AND OTHER NSAIDS” (Techfields Inc., priority 2022, published 2025)
